Activity calls are given as the source filed them.
Columns and labels:
[1] = system: Candida albicans; experiment: fluconazole-resistant Candida strain growth inhibitors – CaCi-8 strain, dry powder, set 4, dose response (AID 488950); type: functional, organism-based
[2] = system: Candida albicans; experiment: Candida growth inhibition combined with fluconazole – CaCi-2 strain, Alamar Blue, dry powder, set 3, dose response (AID 488907); type: functional, organism-based
[3] = system: Candida albicans; experiment: C. albicans growth inhibition with fluconazole – CaCi-2 strain, Alamar Blue, dry powder, set 4, dose response (AID 488943); type: functional, organism-based
[4] = target: Caspase-7 (Homo sapiens, UniProt P55210); experiment: caspase-7 enzyme inhibition, selectivity check – biochemical, DEVD-R110 fluorescence, cherry-pick, selectivity assay for caspase-6 inhibitor project, dose response (AID 743295); type: functional
[5] = target: Caspase-9 (Homo sapiens, UniProt P55211); experiment: inhibitors of purified CASP9 protease – biochemical, fluorescence, plate reader, cherry-picked samples, selectivity assay for caspase-6 inhibitor project, dose response (AID 743293)
[6] = target: Caspase-8 (Homo sapiens, UniProt Q14790); experiment: inhibitors of purified CASP8 protease – biochemical, Z-IETD-R110 fluorescence, cherry-picked samples, selectivity assay for caspase-6 inhibitor project, dose response (AID 743294)
[7] = target: Apoptotic protease-activating factor 1 (Homo sapiens, UniProt O14727); type: functional
[8] = target: T1, Sentrin-specific protease 8 (Homo sapiens, UniProt Q96LD8); type: functional
T1 sequence (Q96LD8 whole entry): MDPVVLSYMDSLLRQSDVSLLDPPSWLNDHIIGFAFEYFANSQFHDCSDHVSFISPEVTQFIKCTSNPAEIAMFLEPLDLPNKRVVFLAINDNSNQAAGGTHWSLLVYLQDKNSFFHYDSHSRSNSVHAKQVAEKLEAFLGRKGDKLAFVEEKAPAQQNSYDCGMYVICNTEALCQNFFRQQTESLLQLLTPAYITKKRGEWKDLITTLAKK

[9] = target: T2, Microphthalmia-associated transcription factor (Homo sapiens, UniProt O75030); experiment: reducers of TRPM1 reporter luminescence, concentration series – cell-based, SK-MEL-5, cherry-picked, set 3, MITF inhibitor project, dose response (AID 493073); type: functional;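 also: SK-MEL-5 melanoma cells with luciferase driven by the MITF target TRPM1 promoter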
T2 sequence (O75030 whole entry): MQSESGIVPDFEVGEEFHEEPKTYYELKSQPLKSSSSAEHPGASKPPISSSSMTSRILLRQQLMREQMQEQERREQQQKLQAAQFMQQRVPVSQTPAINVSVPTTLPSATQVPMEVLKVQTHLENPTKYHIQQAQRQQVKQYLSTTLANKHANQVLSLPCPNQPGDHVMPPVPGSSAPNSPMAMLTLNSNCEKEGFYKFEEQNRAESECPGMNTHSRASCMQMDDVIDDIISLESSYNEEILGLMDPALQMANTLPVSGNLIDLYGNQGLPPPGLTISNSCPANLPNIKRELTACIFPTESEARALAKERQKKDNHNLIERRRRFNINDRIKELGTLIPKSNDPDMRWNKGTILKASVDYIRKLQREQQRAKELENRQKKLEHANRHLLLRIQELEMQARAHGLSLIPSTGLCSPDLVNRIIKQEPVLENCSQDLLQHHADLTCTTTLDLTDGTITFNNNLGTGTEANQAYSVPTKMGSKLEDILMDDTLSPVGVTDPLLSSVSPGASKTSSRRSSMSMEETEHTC

[10] = target: T1, Sentrin-specific protease 8; type: functional; remark: listed apart in the source
[11] = target: T3, Caspase-6 (Homo sapiens, UniProt P55212); experiment: inhibition of CASP6 peptide cleavage – biochemical, VEID-R110 fluorescence, cherry-pick, dose response (AID 720632)
T3 sequence (P55212 whole entry): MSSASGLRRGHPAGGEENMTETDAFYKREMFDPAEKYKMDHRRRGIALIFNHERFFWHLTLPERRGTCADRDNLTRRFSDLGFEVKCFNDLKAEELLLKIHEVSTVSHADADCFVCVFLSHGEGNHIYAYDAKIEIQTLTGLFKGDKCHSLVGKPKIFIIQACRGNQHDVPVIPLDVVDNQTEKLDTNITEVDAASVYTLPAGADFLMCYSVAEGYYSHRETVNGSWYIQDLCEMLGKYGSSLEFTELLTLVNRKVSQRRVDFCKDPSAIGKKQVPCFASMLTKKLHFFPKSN

[12] = target: DNA topoisomerase (Yersinia pestis, UniProt A0A2S9PM60); experiment: Yersinia topoisomerase I cleavage product accumulation – biochemical, cherry-pick, dose response (AID 588525)
[13] = system: INS1; experiment: INS-1E survival protection against cytokine death – cell-based, luminescence, retest, dose response (AID 449756); type: functional; details: Rattus norvegicus;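 also: cell death triggered by IL-1 beta plus TNF-alpha plus IFN-gamma mixture; protective hits raise ATP signal compared with cytokine alone wells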
[14] = Luminescence Cell-Based Dose Retest to Confirm Inhibitors of Cancer Stem Cells. [Related pubchem assays (depositor defined):AID2717, AID2721]; type: functional; details: Homo sapiens
[15] = target: Botulinum neurotoxin type A (Clostridium botulinum (strain Hall / ATCC 3502 / NCTC 13319 / Type A), UniProt P0DPI1); experiment: High-throughput multiplex microsphere dose response for inhibitors of toxin protease, specifically Botulinum neurotoxin light chain A protease, compounds from Cherry Pick 01.; type: functional; details: read-out: EC50_MICROM
Sequence of Botulinum neurotoxin type A (P0DPI1 2-448 limits assumed): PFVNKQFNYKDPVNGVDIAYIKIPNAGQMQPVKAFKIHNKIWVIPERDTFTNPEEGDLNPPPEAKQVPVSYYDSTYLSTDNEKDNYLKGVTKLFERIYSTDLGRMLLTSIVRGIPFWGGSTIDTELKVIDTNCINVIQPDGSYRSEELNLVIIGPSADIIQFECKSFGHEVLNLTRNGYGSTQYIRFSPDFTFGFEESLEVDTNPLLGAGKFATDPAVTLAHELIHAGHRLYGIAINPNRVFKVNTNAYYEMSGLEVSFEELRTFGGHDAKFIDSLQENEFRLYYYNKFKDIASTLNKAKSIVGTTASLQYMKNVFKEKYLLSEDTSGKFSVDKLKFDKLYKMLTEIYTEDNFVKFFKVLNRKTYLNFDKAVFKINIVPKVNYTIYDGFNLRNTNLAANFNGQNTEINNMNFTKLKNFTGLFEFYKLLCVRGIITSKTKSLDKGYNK

Sequence of Caspase-9 (P55211 1-315 limits assumed): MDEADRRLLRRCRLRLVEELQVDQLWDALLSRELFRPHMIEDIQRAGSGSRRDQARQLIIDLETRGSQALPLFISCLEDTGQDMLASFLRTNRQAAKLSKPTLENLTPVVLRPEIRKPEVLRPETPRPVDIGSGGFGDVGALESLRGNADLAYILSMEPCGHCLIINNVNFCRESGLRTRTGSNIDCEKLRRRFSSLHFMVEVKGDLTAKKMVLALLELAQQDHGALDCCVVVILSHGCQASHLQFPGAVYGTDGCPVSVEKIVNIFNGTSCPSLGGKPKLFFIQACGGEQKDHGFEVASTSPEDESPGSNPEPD
Sequence of Caspase-9 (P55211 331-416 limits assumed): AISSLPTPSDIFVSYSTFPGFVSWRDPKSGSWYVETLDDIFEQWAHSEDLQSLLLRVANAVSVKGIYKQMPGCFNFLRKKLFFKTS
Sequence of Caspase-8 (Q14790 217-374 limits assumed): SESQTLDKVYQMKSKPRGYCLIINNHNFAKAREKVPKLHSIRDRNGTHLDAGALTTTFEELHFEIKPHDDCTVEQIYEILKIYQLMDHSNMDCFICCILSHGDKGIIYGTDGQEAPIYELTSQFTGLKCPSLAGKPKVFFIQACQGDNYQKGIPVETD
Sequence of Caspase-8 (Q14790 385-479 limits assumed): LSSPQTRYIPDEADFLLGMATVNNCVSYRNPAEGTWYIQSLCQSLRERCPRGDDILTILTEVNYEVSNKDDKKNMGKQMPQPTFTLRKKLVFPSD
Sequence of Apoptotic protease-activating factor 1 (O14727 whole entry): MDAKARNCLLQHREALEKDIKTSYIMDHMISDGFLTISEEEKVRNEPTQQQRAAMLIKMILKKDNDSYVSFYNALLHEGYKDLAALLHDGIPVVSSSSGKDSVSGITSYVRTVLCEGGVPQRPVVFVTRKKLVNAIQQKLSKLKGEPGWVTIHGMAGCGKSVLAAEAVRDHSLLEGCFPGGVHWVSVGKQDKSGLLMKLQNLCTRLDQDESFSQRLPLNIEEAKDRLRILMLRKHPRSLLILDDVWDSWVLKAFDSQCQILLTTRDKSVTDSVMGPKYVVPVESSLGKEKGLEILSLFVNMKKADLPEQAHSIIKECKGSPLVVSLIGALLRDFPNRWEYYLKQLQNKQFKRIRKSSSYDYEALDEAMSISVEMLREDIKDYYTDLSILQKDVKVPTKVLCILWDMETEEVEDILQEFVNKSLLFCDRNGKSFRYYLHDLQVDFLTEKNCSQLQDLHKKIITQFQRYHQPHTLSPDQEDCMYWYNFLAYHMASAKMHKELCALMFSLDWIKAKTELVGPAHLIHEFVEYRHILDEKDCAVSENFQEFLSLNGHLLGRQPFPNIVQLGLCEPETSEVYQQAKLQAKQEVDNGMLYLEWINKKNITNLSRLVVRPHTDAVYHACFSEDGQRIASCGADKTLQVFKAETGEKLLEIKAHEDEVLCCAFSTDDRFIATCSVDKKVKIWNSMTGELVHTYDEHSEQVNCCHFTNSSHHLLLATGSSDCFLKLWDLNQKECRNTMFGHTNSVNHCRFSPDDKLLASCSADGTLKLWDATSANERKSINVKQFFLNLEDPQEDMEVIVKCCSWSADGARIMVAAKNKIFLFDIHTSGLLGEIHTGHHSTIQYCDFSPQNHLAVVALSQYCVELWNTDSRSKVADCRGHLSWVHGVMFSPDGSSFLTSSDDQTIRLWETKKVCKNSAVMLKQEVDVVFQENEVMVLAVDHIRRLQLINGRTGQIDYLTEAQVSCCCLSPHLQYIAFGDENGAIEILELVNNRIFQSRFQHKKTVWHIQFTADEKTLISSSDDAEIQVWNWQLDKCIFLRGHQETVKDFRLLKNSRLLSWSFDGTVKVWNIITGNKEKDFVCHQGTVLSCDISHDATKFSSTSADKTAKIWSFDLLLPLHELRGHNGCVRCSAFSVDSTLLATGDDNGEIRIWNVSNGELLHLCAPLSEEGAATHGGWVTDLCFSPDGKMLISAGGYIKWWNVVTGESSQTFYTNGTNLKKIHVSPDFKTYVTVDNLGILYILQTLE
Sequence of DNA topoisomerase (A0A2S9PM60 whole entry): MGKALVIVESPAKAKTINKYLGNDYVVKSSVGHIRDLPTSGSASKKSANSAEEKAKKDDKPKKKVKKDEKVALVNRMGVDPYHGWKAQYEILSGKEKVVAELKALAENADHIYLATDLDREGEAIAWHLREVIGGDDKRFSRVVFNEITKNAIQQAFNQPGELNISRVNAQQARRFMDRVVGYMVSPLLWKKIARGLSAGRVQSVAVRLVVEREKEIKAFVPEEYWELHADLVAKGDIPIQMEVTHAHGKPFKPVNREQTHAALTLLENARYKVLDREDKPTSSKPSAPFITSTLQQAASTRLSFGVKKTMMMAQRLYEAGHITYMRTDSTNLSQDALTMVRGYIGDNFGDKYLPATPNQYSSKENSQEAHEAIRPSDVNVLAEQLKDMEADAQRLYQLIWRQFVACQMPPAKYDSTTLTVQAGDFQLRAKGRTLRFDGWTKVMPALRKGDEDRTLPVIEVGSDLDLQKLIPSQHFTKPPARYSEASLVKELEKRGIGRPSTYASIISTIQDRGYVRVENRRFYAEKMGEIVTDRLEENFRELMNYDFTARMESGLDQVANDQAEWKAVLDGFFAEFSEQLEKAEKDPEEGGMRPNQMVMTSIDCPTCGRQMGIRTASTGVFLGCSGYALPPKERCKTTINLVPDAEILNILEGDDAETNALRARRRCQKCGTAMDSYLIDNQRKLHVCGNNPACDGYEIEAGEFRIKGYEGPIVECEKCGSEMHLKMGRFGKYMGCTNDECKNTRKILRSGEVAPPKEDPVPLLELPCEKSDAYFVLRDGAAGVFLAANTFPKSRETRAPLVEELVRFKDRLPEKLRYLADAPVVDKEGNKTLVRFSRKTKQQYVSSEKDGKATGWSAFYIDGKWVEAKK
Sequence of Caspase-7 (P55210 24-198 limits assumed): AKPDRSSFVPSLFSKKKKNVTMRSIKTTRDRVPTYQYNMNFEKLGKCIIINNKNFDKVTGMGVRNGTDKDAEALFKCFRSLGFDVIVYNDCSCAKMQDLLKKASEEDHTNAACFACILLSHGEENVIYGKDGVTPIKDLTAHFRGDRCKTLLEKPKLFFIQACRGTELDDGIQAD
Sequence of Caspase-7 (P55210 207-303 limits assumed): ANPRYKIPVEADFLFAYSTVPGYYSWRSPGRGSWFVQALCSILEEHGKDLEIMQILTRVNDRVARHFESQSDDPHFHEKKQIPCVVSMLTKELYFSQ

O=C(c1ccc(Cl)cc1)N1CCN(c2nc3ccccc3o2)CC1
active: AC50 [1] 0.176 µM | AC50 [2] 0.465 µM | AC50 [3] 14.9 µM

Oc1cc(NCCN2CCOCC2)cc2cccnc12
active: AC50 [4] 3.53 µM | AC50 [5] 15.9 µM | AC50 [6] 17.6 µM | IC50 [7] 8.53 µM | IC50 [8] 2.68 µM | AC50 [9] 25.9 µM | IC50 [10] 4.63 µM | AC50 [11] 3.39 µM

O=C(NCCN(CCNC(=O)c1nc[nH]c1C(=O)Nc1ccc(Cl)cc1)CCNC(=O)c1nc[nH]c1C(=O)Nc1ccc(Cl)cc1)c1nc[nH]c1C(=O)Nc1ccc(Cl)cc1
active: AC50 [12] 6.39 µM | AC50 [13] 7.12 µM | AC50 [14] 1.67 µM

CSc1nnc2c(n1)c(C)nn2-c1cccc(C)c1
active: EC50 [15] 6.4 µM

Reference: ChEMBL document CHEMBL1201862, “PubChem BioAssay data set” (2004)
